Counter-ions that a name gives are not always drawn. Like-named read-outs stand apart in the source and are kept apart here.
Experiments:
PDK1 = PDK1 (Homo sapiens (Human), UniProt O15530); test: PDK1 kinase assay (coupled PDK1/AKT/FAM-crosstide assay, IMAP fluorescence polarization); format: biochemical
In short: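 Inhibition is derived by 4-parameter fitting of ΔmP from an IMAP fluorescence polarization read of FAM-crosstide (100 nM) phosphorylation. The cascade ran 30 min at 25 °C with 40 μM ATP, using insect-cell GST-PDK1 51-359 (0.75 nM) driving 10 nM unphosphorylated AKT2 140-467-PIFtide fusion.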

[1] = tested on: phospho-akt (Thr308) in PC-3 cells; test: Inhibition of phospho-akt (Thr308) in PC-3 cells, MSD phospho-akt 308 ELISA kit; format: cell-based; settings: Homo sapiens, 2 hours, no serum, read-out: EC50
In short: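 Read-out is MSD electrochemiluminescence of Akt phosphorylated at Thr308 in lysates of PC-3 cells treated 2 h with compound in serum-free medium. Wortmannin at 5 μM defined the low control and DMSO the high control.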

[2] = inhibition of phospo-PDK1 in vitro
[3] = inhibition of P308 Akt in PC-3 cells, MSD
[4] = inhibition of P308 Akt in PC-3 cells using MSD

PDK1, sequence (O15530 51-359): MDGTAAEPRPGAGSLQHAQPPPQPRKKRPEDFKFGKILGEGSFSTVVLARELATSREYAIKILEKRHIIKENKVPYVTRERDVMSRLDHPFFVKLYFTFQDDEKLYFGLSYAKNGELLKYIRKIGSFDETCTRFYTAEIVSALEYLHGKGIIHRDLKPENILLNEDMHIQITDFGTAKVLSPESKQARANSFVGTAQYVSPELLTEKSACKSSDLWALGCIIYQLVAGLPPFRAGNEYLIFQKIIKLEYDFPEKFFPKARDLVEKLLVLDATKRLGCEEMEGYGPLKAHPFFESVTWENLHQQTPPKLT

Row | IC50 (PDK1; [2]) [µM] | EC50 [1, 3] [µM] | EC50 [1, 4] [µM] | IC50 (PDK1; inhibition of PDK1 in vitro) [µM] | SMILES
1 | < 0.1 | 1 to 10 |  |  | Cn1cc(C(=O)NCc2ccc(F)c(F)c2)c(NCc2ccc(-c3ccc4ncnc(N)c4c3)s2)n1 [Ex. 11.1]
2 | 0.1 to 1 | 1 to 10 |  |  | Nc1ncnc2ccc(-c3cnc(CNc4ncccc4C(=O)NCc4ccc(F)c(F)c4)s3)cc12 [Ex. 7.1]
3 | < 0.1 | 1 to 10 |  |  | Nc1ncnc2ccc(-c3ccc(CNc4ncc(Br)nc4C(=O)NCc4ccc(F)c(F)c4)s3)cc12 [Ex. 10.2, 3-({[5-(4-aminoquinazolin-6-yl)thiophen-2-yl]methyl}amino)-6-bromo-N-(3,4-difluorobenzyl)pyrazine-2-carboxamide]
4 | < 0.1 | 1 to 10 |  |  | CC(C)Oc1cc(CNc2ncccc2C(=O)NCc2ccc(F)c(F)c2)cc(-c2ccc3ncnc(N)c3c2)c1 [Example 5.6]

Continued, compound first:

Row | SMILES | IC50 (PDK1; [2]) [µM] | EC50 [1, 3] [µM] | EC50 [1, 4] [µM] | IC50 (PDK1; inhibition of PDK1 in vitro) [µM]
5 | C[C@H](NC(=O)c1cc(C(F)(F)F)cnc1NCc1ccc(-c2ccc3ncnc(N)c3c2)s1)c1ccc(F)c(F)c1 [Example 8.12.6, 2-({[5-(4-aminoquinazolin-6-yl)thiophen-2-yl]methyl}amino)-N-[(1S)-1-(3,4-difluorophenyl)ethyl]-5-(trifluoromethyl)pyridine-3-carboxamide] | < 0.1 | < 1 |  | 
6 | CNC(=O)c1cccnc1NCc1cccc(-c2c[nH]c3ncccc23)c1 [Example 1.15, N-methyl-2-{[3-(1H-pyrrolo [2,3-b]pyridin-3-yl)benzyl]amino}pyridine-3-carboxamide] | > 5 | > 10 |  | 
7 | Nc1ncnc2c1c(-c1ccc(CNc3ncc(C(F)(F)F)cc3C(=O)Nc3ccc(F)cc3)cc1)cn2C1COC1 [Example 443, 2-(4-(4-amino-7-(oxetan-3-yl)-7H-pyrrolo[2,3-d]pyrimidin-5-yl)benzylamino)-N-(4-fluorophenyl)-5-(trifluoromethyl)nicotinamide] | < 0.1 |  | < 1 | 
8 | Nc1ncnc2ccc(-c3ccc(CNc4ncccc4C(=O)Nc4ccc(Cl)cc4)s3)cc12 [Example 3.48, 2-({[5-(4-aminoquinazolin-6-yl)thiophen-2-yl]methyl}amino)-N-(4-chlorophenyl)pyridine-3-carboxamide (TFA salt)] | 0.1 to 1 | > 10 |  | 
9 | Nc1ncnc2ccc(-c3ccc(CNc4nc(Cl)cc5ncn(Cc6ccc(F)c(F)c6)c(=O)c45)s3)cc12 [Ex. 7.17, 5-({[5-(4-aminoquinazolin-6-yl)thiophen-2-yl]methyl}amino)-7-chloro-N-3-(3,4-difluorobenzyl)pyrido [4,3-d]pyrimidin-4(3H)-one] | < 0.1 | 1 to 10 |  | 
10 | C[C@H](NC(=O)c1nc(C#N)cnc1NCc1ccc(-c2cnc(N)c(N3CCNCC3)n2)cc1)c1ccc(F)c(F)c1 [Example 192, 3-[4-(3′-Amino-3,4,5,6-tetrahydro-2H-[1,2′]bipyrazinyl-6′-yl)-benzylamino]-6-cyano-pyrazine-2-carboxylic acid [(S)-1-(3,4-difluoro-phenyl)-ethyl]-amide] |  |  | 1 to 10 | < 0.1
11 | C[C@H](NC(=O)c1nc(C#N)cnc1NCc1ccc(-c2cnc(N)c(CCCN)n2)cc1)c1ccc(F)c(F)c1 [Example 94, 3-{4-[5-Amino-6-(3-amino-propyl)-pyrazin-2-yl]-benzyl-amino}-6-cyano-pyrazine-2-carboxylic acid [(S)-1-(3,4-difluoro-phenyl)-ethyl]-amide] |  |  | < 1 | < 0.1
12 | CNC(=O)c1cc(S(=O)(=O)NCCCN(C)C)cnc1NCc1ccc(-c2ccc3ncnc(N)c3c2)s1 [Example 341] |  |  | > 10 | > 5
13 | C[C@H](NC(=O)c1nc(C#N)cnc1NCc1ccc(-c2cnc(NCCO)cn2)cc1)c1ccc(F)c(F)c1 [Example 230, 6-Cyano-3-{4-[5-(2-hydroxy-ethylamino)-pyrazin-2-yl]-benzylamino}-pyrazine-2-carboxylic acid [(S)-1-(3,4-difluoro-phenyl)-ethyl]-amide] |  |  | 1 to 10 | < 0.1

Reference: patent US10030016B2 (Sunesis Pharmaceuticals, Inc., priority 2009, dated 2018)
